Source: EP0358766A1, “METHOD OF STERILIZING PLANT ANTHERS” (VSESOJUZNY NAUCHNO-ISSLEDOVATELSKY INST. SELSKOKHOZYAISTV. …, priority 1988, dated 1989)

Experiments:
[1] = test system: Winterweizens Sorte Mironowskaya 808; assay: Field test of gametocidal activity (anther sterilisation), winter wheat Mironowskaya 808; assay type: in vivo, Weizen; conditions: Mironowskaya 808, period V of organogenesis, 2% aqueous emulsion, 20 kg/ha in 1000 l water; for Prozentsatz des Ansetzens von Samen bei freier Bestäubung: control = 100
Description: (§1) Die gametozide Aktivität der erfindungsgemäßen Sterilisationsmittel war in Feldversuchen in verschiedenen bodenklimatischen Zonen mit Teilstücken von 10 m^2 Größe in dreibis viermaliger Wiederholung festgestellt. Jedes Sterilisationsmittel wurde mindenstens 5 Jahre lang geprüft.
(§2) Die Entwicklung der Perioden der Organogenese wird zytologisch überwacht. Die Behandlung von Pflanzen mit dem Sterilisationsmittel erfolgt am Anfang der fünften Periode der Organogenese nach Kupermann.
(§3) Mit dem Ährenschieben verwirklicht man die Isolierung von Hauptähren und anderen Stockwerken in Pergametbeuteln. Bei Weizen und Tritikale werden Einzelisolatoren benutzt. Bei Roggen schließt man je 1 Ähre von […] verschiedenen nebeneinander befindlichen Pflanzen unter einen gemeinsamen Isolator ein. Bei Hirse wird jede Rispe getrennt isoliert. Der Sterilitätsprozentsatz (X) für Weizen, Roggen, Tritikale und Hirse wird nach der Formel [formula] ermittelt.
(§4) Die Kornzahl in nicht isolierten Ähren von Kontrollpflanzen wird bedingt für 100 % Ansetzen bei freier Bestäubung angenommen.
(§5) Um zuverlässige Angaben zu erhalten, verwendet man 20 bis 25 Isolatoren je Wiederholung für Weizen und Tritikale, 10 bis 15 Isolatoren jeder Wiederholung für Roggen und Hirse.
Pflanzen des Winterweizens Sorte Mironowskaya 808 werden in der V.Periode der Organogenese durch Zerstäubung der 2%igen wäßrigen Emulsion von 1,1,3-Tribrompropan mit Hilfe einer Rückenspritze behandelt.
Als Emulgierungsmittel setzt man 0,5 Masse% C12-C14--Kalziumalkylbenzolsulphonat zu. Als Adjuvans enthält die Emulsion 0,01 Masse% Dimethylsulfoxid. Der Verbrauch an Präparat beträgt 20 kg/ha bei 1000 Liter Wasserdurchsatz. Als Kontrolle dienen Pflanzen, behandelt mit einem Verdünner ohne Sterilisationsmittel. Die Ergebnisse sind in der Tabelle 1 angegeben.
Der ProzeB wird analog zu dem in Beispiel 1 beschriebenen durchgeführt. Als Sterilisationsmittel verwendet man eine 2%ige waßrige Emulsion von 1,1,3-Tribrom-4-chlorbutan, 1,1,2,3-Tetrabrompropan. Die Prüfergebnisse sind in der Tabelle 1 angegeben.
Der Prozeß wird analog zu dem in Beispiel 1 beschriebenen durchgeführt, nur daß man 1%ige wäßrige Emulsion von 1,2,3-Tribrompropan, 1,2-Dibrompropan, 1,1,3-Tribrom-3--chlorpropan, 1,2-Dibrom-3-chlorpropan, 1,3-Dibrompropan, 1,1,1,3-Tetrabromheptan, 1,1,3-Tribromheptan, 1,2-Dibromheptan verwendet. Die Präparatdosis beträgt 10 kg ha. Die Prüfergebnisse sind in der Tabelle 1 angegeben. Die gleichen Ergebnisse sind bei der Behandlung des Weizens Sorte Mironowskaya 808 in der VI. Periode der Organogenese erhalten.

[2] = test system: tetraploidem Roggen Belta; assay: Field test of gametocidal activity, tetraploid rye Belta; assay type: in vivo; conditions: period V, 1% aqueous emulsion, 6 kg/ha in 600 l water; for Prozentsatz des Ansetzens von Samen bei freier Bestäubung: control = 100
Description: as §1, §2, §3, §4, §5
Pflanzen von tetraploidem Roggen Belta werden in der V.Periode der Organogenese (nach Kupermann) mit einer 1%igen wäßrigen Emulsion von 1,1,3-Tribrompropan, 1,1,3--Tribrom-4-chlorbutan, 1,1,2,3-Tetrabrompropan, 1,2,3-Tribrompropan, 1,1,3-Tribrom-3-chlorpropan bzw. 1,2-Dibrom--3-chlorpropan behandelt.
Die Emulsion enthält 0,5 Masse% C12-C14-Kalziumalk^yl-benzolsulfonat und 0,01 Masse% Dimethylsulfoxid. Der Verbrauch an Präparat beträgt 6 kg/ha bei 600 1 Wasserdurchsatz.Die Prüfergebnisse sind in der Tabelle 7 angegeben. Die gleichen Ergebnisse sind bei der Behandlung von tetraploidem Roggen Belta in der VI. Periode der Organogenese erhalten.

diploidem Roggen Chulpan = assay: Field test of gametocidal activity, diploid rye Chulpan; assay type: in vivo; conditions: for Kornzahl der Ähre bei freier Bestäubung / Kornzahl der Ähre im Isolator / Prozentsatz des Ansetzens von Samen bei freier Bestäubung: Chulpan, period V, 1% aqueous emulsion, 10 kg/ha; for Prozentsatz des Ansetzens von Samen bei freier Bestäubung: control = 100; for pest or weed control at 10000 g/ha: read-out: Prozentsatz der Sterilität
Description: as §1, §2, §3, §4, §5
Pflanzen von diploidem Roggen Chulpan werden in der V.Periode der Organogenese mit einer 1%igen wäßrigen Emulsion von 1,1,3-Tribrompropan, 1,1,3-Tribrom-4-chlorbutan, 1,1,2,3-Tetrabrompropan, 1,2,3-Tribrompropan, 1,2-Dibrompropan, 1,1,3-Tribrom-3-ohlorpropan, 1,2-Dibrom-3--chlorpropan, 1,3-Dibrompropan, 1,1,1,3-Tetrabromheptan, 1,1,3-Tribromheptan bzw. 1,2-Dibromheptan behandelt. Die Emulsion enthält 0,5 Masse% C12-C14-Kalziumalkylbenzolsul- fonat und 0,01 Masse% Dimethylsulfoxid. Der Verbrauch an Präparat beträgt 10 kg/ha. Die Prüfergebnisse sind in der Tabelle 11 angegeben. Die gleichen Ergebnisse sind bei der Behandlung von diploidem Roggen Chulpan in der VI. Periode der Organogenese erhalten.

[3] = test system: diploidem Roggen Voskhod 2; assay: Field test of gametocidal activity, diploid rye Voskhod 2; assay type: in vivo; conditions: period V, 1% aqueous emulsion, 10 kg/ha in 1000 l water; for Prozentsatz des Ansetzens von Samen bei freier Bestäubung: control = 100
Description: as §1, §2, §3, §4, §5
Pflanzen von diploidem Roggen Voskhod 2 werden in der V. Periode der Organogenese mit einer 1%igen wäßrigen Emulsion von 1,1,3-Tribrompropan, 1,1,3-Tribrom-4-chlorbutan bzw. 1,1,2,3-Tetrabrompropan behandelt. Die Emulsion enthält 0,5 Masse% C12-C14-Kalziumalkylbenzolsulfonat und 0,01 Masse% Dimethylformamid. Der Verbrauch an Präparat beträgt 10 kg/ha bei 1000 1 Wasserdurchsatz. Die Prüfergebnisse sind in der Tabelle 14 angegeben. Die gleichen Ergebnisse sind bei der Behandlung von diploidem Roggen Voskhod 2 in der VI. Periode der Organogenese erhalten..

[4] = test system: Sommerweizens Sorte Moskowskaya 35; assay: Field test of gametocidal activity, spring wheat Moskowskaya 35; assay type: in vivo, Weizen; conditions: for Kornzahl der Ähre bei freier Bestäubung / Kornzahl der Ähre im Isolator / Prozentsatz des Ansetzens von Samen bei freier Bestäubung: Moskowskaya 35, period V, 1% aqueous emulsion, 6 kg/ha in 600 l water; for Prozentsatz des Ansetzens von Samen bei freier Bestäubung: control = 100; for pest or weed control at 6000 g/ha: read-out: Prozentsatz der Sterilität
Description: as §1, §2, §3, §4, §5
Pflanzen des Sommerweizens Sorte Moskowskaya 35 werden in der V. Periode der Organogenese (nach Kupermann) mit einer l%igen wäßrigen Emulsion von 1,1,3-Tribrompropan, […], 1,1,2,3-Tetrabrompropan, 1,2,3-Tribrompropan, 1,2-Dibrompropan, 1,1,3-Tribrom-3-chlorpropan, 1,2-Dibrom-3-chlorpropan, 1,3-Dibrompropan, 1,1,1,3-Tetrabromheptan bzw. 1,1,3-Tribromheptan behandelt. Die Emulsion enthält als Emulgierungsmittel 0,5 Masse% C12-C14-Kalzium- alkylbenzolsulfonat und als Adjuvans 0,01 Masse% Dimethylformamid. Der Verbrauch an Präparat beträgt 6 kg/ha bei 600 1 Wasserdurchsatz. Als Kontrolle dienen Pflanzen, behandelt mit dem Verdünner ohne Sterilisationsmittel.
Die Prüfergebnisse sind in der Tabelle 2 angegeben. Die gleichen Ergebnisse sind bei der Behandlung des Sommerweizens Sorte Moskowskaya 35 in der VI.Periode der Organogenese erhalten.

[5] = test system: Winterweizens Sorte Mironowskaya 808; assay: Field test of gametocidal activity (anther sterilisation), winter wheat Mironowskaya 808; assay type: in vivo, Weizen; conditions: read-out: Prozentsatz der Sterilität %

Row | Compound | Kornzahl der Ähre bei freier Bestäubung [1] | Kornzahl der Ähre im Isolator [1] | Prozentsatz des Ansetzens von Samen bei freier Bestäubung [1] | Kornzahl der Ähre bei freier Bestäubung [2] | Kornzahl der Ähre im Isolator [2] | Prozentsatz der Sterilität [2] | Prozentsatz des Ansetzens von Samen bei freier Bestäubung [2] | Kornzahl der Ähre bei freier Bestäubung (diploidem Roggen Chulpan) | Kornzahl der Ähre im Isolator (diploidem Roggen Chulpan) | Prozentsatz des Ansetzens von Samen bei freier Bestäubung (diploidem Roggen Chulpan) | pest or weed control at 10000 g/ha (diploidem Roggen Chulpan) | Kornzahl der Ähre bei freier Bestäubung [3] | Kornzahl der Ähre unter Isolator [3] | Prozentsatz der Sterilität [3] | Prozentsatz des Ansetzens von Samen bei freier Bestäubung [3] | Kornzahl der Ähre bei freier Bestäubung [4] | Kornzahl der Ähre im Isolator [4] | Prozentsatz des Ansetzens von Samen bei freier Bestäubung [4] | pest or weed control at 6000 g/ha [4] | pest or weed control at 1 %, 20000 g/ha [5]
1 | ClCC(Br)CC(Br)Br (stereo not shown) [Beispiel 2, 1,1,3-Tribrom-4-chlorbutan] | 41,3 | 1,1 | 86,0% | 42,6 | 0,8 | 98,0% | 96,4% | 47,8 | 1,0 | 95,4% | 98% | 52,4 | 1,0 | 97,2% | 96,0% | 36,5 | 0,6 | 95,5% | 99.2% | 97.3%
2 | BrCC(Br)C(Br)Br (stereo not shown) [Beispiel 3, 1,1,2,3-Tetrabrompropan] | 35,1 | 1,0 | 94,1% | 40,1 | 0,6 | 98,5% | 90,7% | 44,3 | 0,4 | 88,4% | 99.2% | 45,7 | 0,2 | 99,6% | 83,7% | 31,8 | 0,3 | 83,2% | 99.1% | 97.3%
